From PubChem BioAssay (NCI)
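Five concentrations, 48 hours, 96-well plates. Abbreviation: GI50, concentration required for 50% inhibition of growth. TGI denotes the concentration required for complete inhibition of growth.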

Legend:
Experiment in all cases: growth of human tumour cells (NCI), 48 h
[1] = system: 786-0 renal
[2] = system: A498 renal
[3] = system: A549 NSCLC
[4] = system: ACHN renal
[5] = system: BT-549 breast
[6] = system: CAKI-1 renal
[7] = system: CCRF-CEM leukemia
[8] = system: COLO 205 colon
[9] = system: DU-145 prostate
[10] = system: EKVX NSCLC
[11] = system: HCC-2998 colon
[12] = system: HCT-116 colon
[13] = system: HCT-15 colon
[14] = system: HL-60(TB) leukemia
[15] = system: HOP-62 NSCLC
[16] = system: HOP-92 NSCLC
[17] = system: HS 578T breast
[18] = system: HT29 colon
[19] = system: IGROV1 ovarian
[20] = system: K-562 leukemia
[21] = system: KM12 colon
[22] = system: LOX IMVI melanoma
[23] = system: M14 melanoma
[24] = system: MALME-3M melanoma
[25] = system: MCF7 breast
[26] = system: MDA-MB-231 breast
[27] = system: MDA-MB-435
[28] = system: MDA-MB-468 breast
[29] = system: MOLT-4 leukemia
[30] = system: NCI-H226 lung
[31] = system: NCI-H23 lung
[32] = system: NCI-H460 lung
[33] = system: NCI-H522 lung
[34] = system: NCI/ADR-RES ovarian
[35] = system: OVCAR-3 ovarian
[36] = system: OVCAR-4 ovarian
[37] = system: OVCAR-5 ovarian
[38] = system: OVCAR-8 ovarian
[39] = system: PC-3 prostate
[40] = system: RPMI-8226 leukemia
[41] = system: RXF 393 renal
[42] = system: SF-268 CNS
[43] = system: SF-295 CNS
[44] = system: SF-539 CNS
[45] = system: SK-MEL-2 melanoma
[46] = system: SK-MEL-28 melanoma
[47] = system: SK-MEL-5 melanoma
[48] = system: SK-OV-3 ovarian
[49] = system: SN12C renal
[50] = system: SNB-19 CNS
[51] = system: SNB-75 CNS
[52] = system: SR leukemia
[53] = system: SW-620 colon
[54] = system: T-47D breast
[55] = system: TK-10 renal
[56] = system: U251 CNS
[57] = system: UACC-257 melanoma
[58] = system: UACC-62 melanoma
[59] = system: UO-31 renal

## COc1ccc(/C=C/c2nc3ccccc3n3c(-c4cccc([N+](=O)[O-])c4)nnc23)cc1
[1]
  GI50: 1.45 µM
  TGI: 2.76 µM
[2]
  GI50: 12.4 µM
  TGI: 28.1 µM
[3]
  GI50: 2.65 µM
  TGI: 11 µM
[4]
  GI50: 1.37 µM
  TGI: 2.66 µM
[5]
  GI50: 1.38 µM
  TGI: 2.92 µM
[6]
  GI50: 2.47 µM
  TGI: 10.4 µM
[7]
  GI50: 0.312 µM
  TGI: 1.15 µM
[8]
  GI50: 1.76 µM
  TGI: 3.66 µM
[9]
  GI50: 1.61 µM
  TGI: 4.29 µM
[10]
  GI50: 3.86 µM
  TGI: 14.8 µM
[11]
  GI50: 2.57 µM
  TGI: 11.3 µM
[12]
  GI50: 1.08 µM
  TGI: 2.27 µM
[13]
  GI50: 0.948 µM
  TGI: 2.25 µM
[14]
  GI50: 1.62 µM
  TGI: 10.9 µM
[15]
  GI50: 5.47 µM
  TGI: 18.2 µM
[16]
  GI50: 1.91 µM
  TGI: 4.93 µM
[17]
  GI50: 3.99 µM
  TGI: 20.7 µM
[18]
  GI50: 1.12 µM
  TGI: 2.32 µM
[19]
  GI50: 1.89 µM
  TGI: 3.77 µM
[20]
  GI50: 0.307 µM
  TGI: 2.14 µM
[21]
  GI50: 2.62 µM
  TGI: 10.8 µM
[22]
  GI50: 0.148 µM
  TGI: 0.289 µM
[23]
  GI50: 0.76 µM
  TGI: 2.17 µM
[24]
  GI50: 0.581 µM
  TGI: 1.98 µM
[25]
  GI50: 1.83 µM
  TGI: 10.1 µM
[26]
  GI50: 1.8 µM
  TGI: 4.55 µM
[27]
  GI50: 1.9 µM
  TGI: 5.65 µM
[28]
  GI50: 1.13 µM
  TGI: 2.85 µM
[29]
  GI50: 1.21 µM
  TGI: 4.1 µM
[30]
  GI50: 0.626 µM
  TGI: 2.49 µM
[31]
  GI50: 1.51 µM
  TGI: 3.01 µM
[32]
  GI50: 1.69 µM
  TGI: 4.26 µM
[33]
  GI50: 0.12 µM
  TGI: 0.258 µM
[34]
  GI50: 2.1 µM
  TGI: 6.93 µM
[35]
  GI50: 1.27 µM
  TGI: 2.61 µM
[36]
  GI50: 1.68 µM
  TGI: 5.32 µM
[37]
  GI50: 1.77 µM
  TGI: 3.61 µM
[38]
  GI50: 1.75 µM
  TGI: 4.8 µM
[39]
  GI50: 3.01 µM
  TGI: 14.5 µM
[40]
  GI50: 1.44 µM
  TGI: 4.03 µM
[41]
  GI50: 1.24 µM
  TGI: 2.55 µM
[42]
  GI50: 2.77 µM
  TGI: 10.2 µM
[43]
  GI50: 9.61 µM
  TGI: 21.4 µM
[44]
  GI50: 1.44 µM
  TGI: 2.75 µM
[45]
  GI50: 2.63 µM
  TGI: 9.09 µM
[46]
  GI50: 2.19 µM
  TGI: 4.94 µM
[47]
  GI50: 2.06 µM
  TGI: 5.38 µM
[48]
  GI50: 5.22 µM
  TGI: 17.6 µM
[49]
  GI50: 1.14 µM
  TGI: 2.36 µM
[50]
  GI50: 5.84 µM
  TGI: 18.8 µM
[51]
  GI50: 4.12 µM
  TGI: 15.9 µM
[52]
  GI50: 0.247 µM
  TGI: 1.36 µM
[53]
  GI50: 0.631 µM
  TGI: 1.87 µM
[54]
  GI50: 3.76 µM
  TGI: 16.1 µM
[55]
  GI50: 2.87 µM
  TGI: 9.9 µM
[56]
  GI50: 1.52 µM
  TGI: 3.3 µM
[57]
  GI50: 3.65 µM
  TGI: 15 µM
[58]
  GI50: 1.7 µM
  TGI: 4.3 µM
[59]
  GI50: 2 µM
  TGI: 8.8 µM

## COc1cccc(-c2nn(-c3ccccc3)cc2-c2ccnc(NCCCNC(=O)Nc3ccc(F)cc3)c2)c1
[1]
  GI50: 9.34 µM
  TGI: > 37 µM
[2]
  GI50: 7.37 µM
  TGI: 31.4 µM
[3]
  GI50: 9.95 µM
  TGI: > 37 µM
[4]
  GI50: 10.6 µM
  TGI: > 37 µM
[5]
  GI50: 6.24 µM
  TGI: 20.3 µM
[6]
  GI50: 8.63 µM
  TGI: > 37 µM
[7]
  GI50: 8.53 µM
  TGI: 31.5 µM
[8]
  GI50: 8.17 µM
  TGI: 29.3 µM
[9]
  GI50: 14 µM
  TGI: > 37 µM
[10]
  GI50: 9.63 µM
  TGI: > 37 µM
[11]
  GI50: 7.38 µM
  TGI: 20 µM
[12]
  GI50: 5.7 µM
  TGI: 17 µM
[13]
  GI50: 7.64 µM
  TGI: > 37 µM
[14]
  GI50: 3.77 µM
  TGI: 13.7 µM
[15]
  GI50: 14.7 µM
  TGI: > 37 µM
[16]
  GI50: 6.25 µM
  TGI: 31.1 µM
[17]
  GI50: 6.24 µM
  TGI: 17.9 µM
[18]
  GI50: 7.17 µM
  TGI: 18.2 µM
[19]
  GI50: 9.34 µM
  TGI: > 37 µM
[20]
  GI50: 2.96 µM
  TGI: > 37 µM
[21]
  GI50: 10.5 µM
  TGI: > 37 µM
[22]
  GI50: 5.86 µM
  TGI: 12 µM
[23]
  GI50: 6.71 µM
  TGI: 19 µM
[24]
  GI50: 5.45 µM
  TGI: 10.6 µM
[25]
  GI50: 7.17 µM
  TGI: 18 µM
[26]
  GI50: 7.84 µM
  TGI: 23 µM
[27]
  GI50: 5.61 µM
  TGI: 12.8 µM
[28]
  GI50: 4.83 µM
  TGI: 13 µM
[29]
  GI50: 3.94 µM
  TGI: 19 µM
[30]
  GI50: 10.8 µM
  TGI: > 37 µM
[31]
  GI50: 10.1 µM
  TGI: > 37 µM
[32]
  GI50: 6.54 µM
  TGI: 17.1 µM
[33]
  GI50: 5.07 µM
  TGI: 12 µM
[34]
  GI50: 7.29 µM
  TGI: 25.4 µM
[35]
  GI50: 6.18 µM
  TGI: > 37 µM
[36]
  GI50: 10.5 µM
  TGI: > 37 µM
[37]
  GI50: 11.2 µM
  TGI: > 37 µM
[38]
  GI50: 10.6 µM
  TGI: > 37 µM
[39]
  GI50: 6.23 µM
  TGI: > 37 µM
[40]
  GI50: 5.96 µM
  TGI: 24.6 µM
[41]
  GI50: 6.01 µM
  TGI: 28.6 µM
[42]
  GI50: 7.08 µM
  TGI: 30 µM
[43]
  GI50: 7.16 µM
  TGI: 21.7 µM
[44]
  GI50: 6.34 µM
  TGI: 13.4 µM
[45]
  GI50: 6.3 µM
  TGI: 12.6 µM
[46]
  GI50: 6.57 µM
  TGI: 15.5 µM
[47]
  GI50: 5.64 µM
  TGI: 10.8 µM
[48]
  GI50: 10.8 µM
  TGI: > 37 µM
[49]
  GI50: 9.83 µM
  TGI: > 37 µM
[50]
  GI50: 12.1 µM
  TGI: > 37 µM
[51]
  GI50: 4.18 µM
  TGI: 22.7 µM
[52]
  GI50: 7.7 µM
  TGI: > 37 µM
[53]
  GI50: 8.02 µM
  TGI: > 37 µM
[54]
  GI50: 7.95 µM
  TGI: > 37 µM
[55]
  GI50: 21.2 µM
  TGI: > 37 µM
[56]
  GI50: 9.84 µM
  TGI: > 37 µM
[57]
  GI50: 7.05 µM
  TGI: 16.9 µM
[58]
  GI50: 7.57 µM
  TGI: 24.2 µM
[59]
  GI50: 5.1 µM
  TGI: > 37 µM
